Experimental data published in patent US20230286970A1, “NOVEL OXADIAZOLE-BASED SELECTIVE HDAC6 INHIBITORS” (ITALFARMACO S.P.A., priority 2020, published 2023).
Like-named read-outs stand apart in the source and are kept apart here.

What was measured:
[1] = 4 h
[2] = 4 h; remark: listed apart in the source
[3] = 90 min, pH 7.4
recombinant human HDAC1 = recombinant human HDAC1 (Homo sapiens (Human), UniProt Q13547); test: Enzymatic screening, HDAC1 inhibition (fluorogenic FdL_G substrate); type: biochemical
Chain of recombinant human HDAC1 (Q13547 whole entry): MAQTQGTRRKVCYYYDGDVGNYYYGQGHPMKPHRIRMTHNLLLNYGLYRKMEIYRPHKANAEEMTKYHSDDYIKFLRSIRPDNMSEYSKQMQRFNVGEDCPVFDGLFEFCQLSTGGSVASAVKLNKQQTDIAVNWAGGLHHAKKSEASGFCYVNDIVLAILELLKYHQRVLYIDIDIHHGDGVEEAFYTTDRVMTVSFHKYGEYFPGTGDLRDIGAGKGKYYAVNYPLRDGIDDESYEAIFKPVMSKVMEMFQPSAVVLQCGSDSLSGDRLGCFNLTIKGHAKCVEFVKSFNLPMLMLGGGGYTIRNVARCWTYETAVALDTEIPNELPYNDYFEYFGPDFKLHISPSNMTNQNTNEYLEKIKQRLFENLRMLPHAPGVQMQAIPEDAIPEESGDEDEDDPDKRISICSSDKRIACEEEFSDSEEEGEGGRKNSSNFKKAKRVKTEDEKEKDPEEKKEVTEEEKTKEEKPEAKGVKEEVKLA
Summary of the method: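 Recombinant human HDAC1 inhibition was measured fluorometrically using the FLUOR DE LYS-Green (FdL_G) substrate. Compounds at 8 doses (1% DMSO final) in Tris-HCl pH 8 buffer with NaCl, Tween-20 and glycerol were preincubated in triplicate with enzyme and 1 mg/mL BSA, then given substrate. Developer I plus 2 μM TSA was added, and fluorescence read after 25 minutes in the dark.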

[4] = system: α-tubulin acetylation in 697 cell line; test: In vitro α-tubulin acetylation in 697 cell line (ELISA); type: cell-based; conditions: 16 hours, read-out: fold increase @ 1 uM TubAc (ratio of acetylated tubulin and total tubulin towards control)
Summary of the method: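 B 697 cells in RPMI 10% FCS were treated for 16 h at 37 °C with compound at 1000, 333, 111 or 37 nM. Lysate (0.3 μg protein) was coated and probed by ELISA for acetylated and total α-tubulin, read at 450 nm. The acetylated/total ratio is given as fold over untreated control.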

[5] = 90 min, pH 7.4; remark: listed apart in the source
recombinant human HDAC6 = recombinant human HDAC6 (Homo sapiens (Human), UniProt Q9UBN7); test: Enzymatic screening, HDAC6 inhibition (fluorogenic FdL_G substrate); type: biochemical
Chain of recombinant human HDAC6 (Q9UBN7 whole entry): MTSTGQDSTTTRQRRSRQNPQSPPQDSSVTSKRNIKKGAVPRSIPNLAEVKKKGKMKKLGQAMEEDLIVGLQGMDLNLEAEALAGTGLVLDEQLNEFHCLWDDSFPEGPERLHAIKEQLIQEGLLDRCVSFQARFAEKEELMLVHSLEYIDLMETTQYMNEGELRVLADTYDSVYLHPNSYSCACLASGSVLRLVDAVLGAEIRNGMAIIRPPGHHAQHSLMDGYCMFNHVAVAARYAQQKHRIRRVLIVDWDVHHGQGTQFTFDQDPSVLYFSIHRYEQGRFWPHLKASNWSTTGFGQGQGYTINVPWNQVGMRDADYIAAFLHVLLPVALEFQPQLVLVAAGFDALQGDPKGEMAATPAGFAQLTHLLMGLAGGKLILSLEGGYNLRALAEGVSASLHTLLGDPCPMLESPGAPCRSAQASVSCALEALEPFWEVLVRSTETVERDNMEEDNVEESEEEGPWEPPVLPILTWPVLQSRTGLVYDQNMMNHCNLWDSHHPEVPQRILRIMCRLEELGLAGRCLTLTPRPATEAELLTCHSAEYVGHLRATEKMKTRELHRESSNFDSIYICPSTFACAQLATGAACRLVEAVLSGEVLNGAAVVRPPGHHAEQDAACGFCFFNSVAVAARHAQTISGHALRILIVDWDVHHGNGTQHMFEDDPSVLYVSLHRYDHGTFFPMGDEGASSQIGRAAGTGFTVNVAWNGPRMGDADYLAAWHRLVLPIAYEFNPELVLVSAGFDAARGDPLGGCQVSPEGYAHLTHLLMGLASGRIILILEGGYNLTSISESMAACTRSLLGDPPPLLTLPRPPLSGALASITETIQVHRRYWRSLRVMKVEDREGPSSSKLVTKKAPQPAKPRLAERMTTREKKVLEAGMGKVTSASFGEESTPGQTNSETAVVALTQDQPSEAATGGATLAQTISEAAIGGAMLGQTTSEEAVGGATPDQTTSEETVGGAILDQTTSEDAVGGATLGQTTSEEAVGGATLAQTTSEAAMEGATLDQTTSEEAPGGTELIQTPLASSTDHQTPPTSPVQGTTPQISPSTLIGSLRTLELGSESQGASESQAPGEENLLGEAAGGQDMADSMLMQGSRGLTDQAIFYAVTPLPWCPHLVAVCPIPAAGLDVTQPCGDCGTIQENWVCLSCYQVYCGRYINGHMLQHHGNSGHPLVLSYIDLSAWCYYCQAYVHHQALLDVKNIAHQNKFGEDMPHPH
Summary of the method: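 Enzyme was preincubated with compound (8 doses, triplicate, 1% DMSO) in 25 mM Tris-HCl pH 8, 130 mM NaCl, 0.05% Tween-20, 10% glycerol, with BSA. A FLUOR DE LYS-Green substrate was then added, and fluorescence was read after developer plus 2 μM TSA.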

HDAC5 = HDAC5 (Homo sapiens (Human), UniProt Q9UQL6); test: Enzymatic screening, HDAC5 inhibition; type: biochemical
Chain of HDAC5 (Q9UQL6 whole entry, canonical isoform): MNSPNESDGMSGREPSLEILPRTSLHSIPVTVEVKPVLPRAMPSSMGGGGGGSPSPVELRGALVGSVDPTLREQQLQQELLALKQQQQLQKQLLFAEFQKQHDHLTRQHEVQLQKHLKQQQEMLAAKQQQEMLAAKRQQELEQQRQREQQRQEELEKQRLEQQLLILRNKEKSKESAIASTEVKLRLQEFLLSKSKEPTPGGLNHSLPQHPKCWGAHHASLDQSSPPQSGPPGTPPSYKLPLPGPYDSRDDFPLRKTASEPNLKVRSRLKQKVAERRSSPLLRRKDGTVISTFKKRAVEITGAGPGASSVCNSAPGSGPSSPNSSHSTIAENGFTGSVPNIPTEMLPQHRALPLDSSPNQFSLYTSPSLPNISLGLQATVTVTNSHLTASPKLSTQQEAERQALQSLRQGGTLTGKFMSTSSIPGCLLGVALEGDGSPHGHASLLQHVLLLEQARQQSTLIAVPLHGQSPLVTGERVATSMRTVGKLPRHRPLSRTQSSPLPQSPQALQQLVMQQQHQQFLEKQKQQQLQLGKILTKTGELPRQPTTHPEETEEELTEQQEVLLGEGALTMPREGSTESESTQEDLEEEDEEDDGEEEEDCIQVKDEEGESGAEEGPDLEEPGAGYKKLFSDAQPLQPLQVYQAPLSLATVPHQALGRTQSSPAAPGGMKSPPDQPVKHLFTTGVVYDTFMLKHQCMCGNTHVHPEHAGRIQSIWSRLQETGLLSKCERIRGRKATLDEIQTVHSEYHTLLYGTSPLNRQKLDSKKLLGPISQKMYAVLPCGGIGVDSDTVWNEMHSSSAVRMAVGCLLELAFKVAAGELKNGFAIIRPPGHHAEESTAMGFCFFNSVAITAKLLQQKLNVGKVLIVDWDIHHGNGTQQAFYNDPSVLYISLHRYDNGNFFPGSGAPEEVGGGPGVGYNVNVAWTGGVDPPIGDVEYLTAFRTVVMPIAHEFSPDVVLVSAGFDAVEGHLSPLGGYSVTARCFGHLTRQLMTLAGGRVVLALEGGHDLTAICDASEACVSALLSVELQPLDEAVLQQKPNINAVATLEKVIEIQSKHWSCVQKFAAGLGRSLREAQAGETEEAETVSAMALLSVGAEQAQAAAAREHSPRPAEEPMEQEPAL
Protocol: (§1) For each test compound, 100× concentrated DMSO solutions at 8 doses were prepared and then diluted in assay buffer (25 mM Tris-HCl, pH 8, 130 mM NaCl, 0.05% Tween-20, 10% Glycerol) to obtain 5× concentrated solutions in relation to the final concentrations (typical final concentration range—6.4-200000 nM or 0.18-50000 nM, final DMSO content—1%). Then 10 μL solution of each test compound concentration were placed on a 96-well plate in triplicate and 15 μL of 3.33× concentrated enzyme solution in the assay buffer containing 3.33× concentrated BSA (final BSA concentration—2 mg/mL for HDAC4, HDAC5 and HDAC9 or 1 mg/mL for other isoforms) and in the case of HDAC6-3.33× concentrated TCEP (final TCEP concentration—200 μM) were added to each well. After a period of preincubation (incubation times and temperatures vary for different isoforms and are shown in table 1) 25 μL of solution containing the substrate were added. As substrate, FLUOR DE LYS® deacetylase substrate (Enzo Life Sciences, cat: BML-KI104, FdL), FLUOR DE LYS®-Green substrate (Enzo Life Sciences, cat: BML-KI572, FdL_G) or Boc-Lys(Tfa)-AMC (Bachem, cat: 4060676.005, Tfal)—2× concentrated solution in assay buffer were used. Following a reaction period (reaction times and temperatures vary for different isoforms and are reported in Table 1), 50 μL of the development solution consisting of concentrate FLUOR DE LYS® developer I (Enzo Life Sciences, ca: BML-KI105), diluted 200 times in buffer (50 mM Tris-HCl, pH 8, 137 mM NaCl, 2.7 mM KCl, 1 mM MgCl2) plus 2 μM TSA was added and, after 25 minutes at room temperature in the dark, using the Victor 1420 Multilabel Counter Perkin Elmer Wallac instrument, the fluorescence reading was carried out.

HDAC11 = HDAC11 (Homo sapiens (Human), UniProt Q96DB2); test: Enzymatic screening, HDAC11 inhibition; type: biochemical
Protocol: as §1

HDAC7 = HDAC7 (Homo sapiens (Human), UniProt Q8WUI4); test: Enzymatic screening, HDAC7 inhibition; type: biochemical
Protocol: as §1

HDAC10 = HDAC10 (Homo sapiens (Human), UniProt Q969S8); test: Enzymatic screening, HDAC10 inhibition; type: biochemical
Chain of HDAC10 (Q969S8 whole entry): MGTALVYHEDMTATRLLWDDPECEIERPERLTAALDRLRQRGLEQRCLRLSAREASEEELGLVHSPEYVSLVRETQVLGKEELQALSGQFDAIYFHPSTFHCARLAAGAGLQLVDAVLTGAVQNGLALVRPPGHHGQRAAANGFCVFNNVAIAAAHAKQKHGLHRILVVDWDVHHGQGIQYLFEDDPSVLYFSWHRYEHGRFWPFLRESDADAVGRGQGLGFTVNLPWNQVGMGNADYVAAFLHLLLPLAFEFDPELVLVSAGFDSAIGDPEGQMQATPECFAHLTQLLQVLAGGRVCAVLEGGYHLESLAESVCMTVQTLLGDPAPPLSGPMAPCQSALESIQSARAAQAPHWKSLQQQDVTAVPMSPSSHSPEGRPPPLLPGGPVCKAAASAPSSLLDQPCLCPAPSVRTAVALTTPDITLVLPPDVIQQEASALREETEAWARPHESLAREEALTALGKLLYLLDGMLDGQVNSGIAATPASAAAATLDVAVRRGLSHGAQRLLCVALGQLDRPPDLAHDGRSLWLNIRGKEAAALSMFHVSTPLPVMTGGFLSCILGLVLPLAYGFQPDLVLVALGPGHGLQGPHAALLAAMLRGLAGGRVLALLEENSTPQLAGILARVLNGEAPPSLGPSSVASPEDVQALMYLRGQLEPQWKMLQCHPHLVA
Protocol: as §1

HDAC8 = HDAC8 (Homo sapiens (Human), UniProt Q9BY41); test: Enzymatic screening, HDAC8 inhibition; type: biochemical
Chain of HDAC8 (Q9BY41 whole entry): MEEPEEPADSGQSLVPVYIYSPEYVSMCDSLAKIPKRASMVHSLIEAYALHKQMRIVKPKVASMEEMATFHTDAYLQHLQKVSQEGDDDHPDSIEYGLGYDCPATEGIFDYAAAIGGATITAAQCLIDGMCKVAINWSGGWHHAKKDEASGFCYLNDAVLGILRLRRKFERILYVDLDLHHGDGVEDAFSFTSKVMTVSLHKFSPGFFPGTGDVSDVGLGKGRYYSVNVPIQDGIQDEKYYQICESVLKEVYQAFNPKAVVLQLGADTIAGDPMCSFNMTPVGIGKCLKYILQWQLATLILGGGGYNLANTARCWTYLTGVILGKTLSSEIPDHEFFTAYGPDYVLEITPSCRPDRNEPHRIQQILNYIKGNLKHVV
Protocol: as §1

HDAC3 = HDAC3 (Homo sapiens (Human), UniProt O15379); test: Enzymatic screening, HDAC3 inhibition; type: biochemical
Chain of HDAC3 (O15379 whole entry): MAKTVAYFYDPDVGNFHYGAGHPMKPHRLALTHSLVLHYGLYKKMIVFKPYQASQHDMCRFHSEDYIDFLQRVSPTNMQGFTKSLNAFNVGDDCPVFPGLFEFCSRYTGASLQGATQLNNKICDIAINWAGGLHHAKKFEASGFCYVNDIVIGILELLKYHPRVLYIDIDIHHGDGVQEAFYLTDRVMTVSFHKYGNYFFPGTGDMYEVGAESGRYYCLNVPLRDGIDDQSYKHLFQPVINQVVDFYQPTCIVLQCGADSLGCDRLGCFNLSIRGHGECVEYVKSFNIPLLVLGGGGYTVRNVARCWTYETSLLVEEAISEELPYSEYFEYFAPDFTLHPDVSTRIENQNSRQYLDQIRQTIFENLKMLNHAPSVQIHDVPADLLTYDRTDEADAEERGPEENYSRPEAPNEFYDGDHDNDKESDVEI
Chain of HDAC3 (Q9Y618 395-489 partner): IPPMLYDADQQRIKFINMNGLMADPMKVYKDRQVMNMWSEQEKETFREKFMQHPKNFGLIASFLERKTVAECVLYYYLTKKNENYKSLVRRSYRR
Protocol: as §1

HDAC9 = HDAC9 (Homo sapiens (Human), UniProt Q9UKV0); test: Enzymatic screening, HDAC9 inhibition; type: biochemical
Protocol: as §1

HDAC4 = HDAC4 (Homo sapiens (Human), UniProt P56524); test: Enzymatic screening, HDAC4 inhibition; type: biochemical
Protocol: as §1

HDAC2 = HDAC2 (Homo sapiens (Human), UniProt Q92769); test: Enzymatic screening, HDAC2 inhibition; type: biochemical
Chain of HDAC2 (Q92769 whole entry): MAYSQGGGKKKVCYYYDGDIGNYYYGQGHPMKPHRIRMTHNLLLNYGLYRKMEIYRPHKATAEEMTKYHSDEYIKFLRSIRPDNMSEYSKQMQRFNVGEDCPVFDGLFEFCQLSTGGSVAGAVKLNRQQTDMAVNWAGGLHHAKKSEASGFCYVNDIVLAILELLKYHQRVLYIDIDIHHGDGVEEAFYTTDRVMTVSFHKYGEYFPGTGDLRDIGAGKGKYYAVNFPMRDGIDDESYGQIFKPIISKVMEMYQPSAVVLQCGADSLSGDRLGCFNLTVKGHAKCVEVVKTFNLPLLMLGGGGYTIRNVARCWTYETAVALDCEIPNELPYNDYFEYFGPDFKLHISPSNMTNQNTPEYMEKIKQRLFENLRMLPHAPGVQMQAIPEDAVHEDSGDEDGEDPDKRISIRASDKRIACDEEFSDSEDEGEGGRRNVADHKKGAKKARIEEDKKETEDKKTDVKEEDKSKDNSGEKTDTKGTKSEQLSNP
Protocol: as §1

[6] = Stability in human plasma; conditions: after 4 hours, 37° C.
[7] = Stability to Phase I metabolism in human S9 liver fraction; conditions: after 90 minutes, 37° C.
Stability in rat plasma = conditions: after 4 hours, 37° C.
[8] = Stability to Phase I metabolism in rat S9 liver fraction; conditions: after 90 minutes, 37° C.

Structure (SMILES) | IC50 (recombinant human HDAC1) [µM] | IC50 (recombinant human HDAC6) [µM] | IC50 (HDAC5) [µM] | IC50 (HDAC11) [µM] | IC50 (HDAC7) [µM] | IC50 (HDAC10) [µM] | IC50 (HDAC8) [µM] | IC50 (HDAC3) [µM] | IC50 (HDAC9) [µM] | IC50 (HDAC4) [µM] | IC50 (HDAC2) [µM] | residual percentage in HUMAN PLASMA [6] [%] | residual percentage in HUMAN S9 FRACTION [7] [%] | residual percentage in RAT PLASMA (Stability in rat plasma) [%] | residual percentage in RAT S9 FRACTION [8] [%] | residual percentage in RAT PLASMA [1] [%] | residual percentage in HUMAN PLASMA [2] [%] | residual percentage in RAT S9 FRACTION [3] [%] | fold induction at 1 µM [4] | residual percentage in HUMAN S9 FRACTION [5] [%]
O=C1Nc2ccc(-c3cn(Cc4ccc(-c5nnc(C(F)F)o5)cc4)nn3)cc2C12CCNCC2 [compound 46, 5-(1-(4-(5-(difluoromethyl)-1,3,4-oxadiazol-2-yl)benzyl)-1H-1,2,3-triazol-4-yl)spiro[indoline-3,4′-piperidin]-2-one] | > 200 | 0.02 | – | – | – | – | – | – | – | – | – | – | – | – | – | 72 | 74 | 60 | 5 | 81
O=C1Nc2ccc(-c3cn(Cc4ccc(-c5nnc(C(F)F)o5)cn4)nn3)cc2C12CCNCC2 [Compd. 19, 5-(1-((5-(5-(difluoromethyl)-1,3,4-oxadiazol-2-yl)pyridin-2-yl)methyl)-1H-1,2,3-triazol-4-yl)spiro[indoline-3,4′-piperidin]-2-one] | > 200 | 0.011 | > 30 | > 30 | > 30 | > 30 | 572 | > 30 | > 30 | > 30 | > 30 | – | – | – | – | 83 | 83 | 94 | 4 | 96
Nc1nc2cc(-c3cn(Cc4ccc(-c5nnc(C(F)F)o5)cn4)nn3)ccc2s1 [Compd. 3, 5-(1-((5-(5-(difluoromethyl)-1,3,4-oxadiazol-2-yl)pyridin-2-yl)methyl)-1H-1,2,3-triazol-4-yl)benzo[d]thiazol-2-amine] | > 200 | 0.01 | > 30 | > 30 | > 30 | > 30 | > 200 | > 30 | 22.5 | > 30 | > 30 | 70 | 97 | 80 | 90 | – | – | – | 13 | –
Nc1ccc(-c2cn(Cc3ccc(-c4nnc(C(F)F)o4)cn3)nn2)cn1 [compound 5, 5-(1-((5-(5-(difluoromethyl)-1,3,4-oxadiazol-2-yl)pyridin-2-yl)methyl)-1H-1,2,3-triazol-4-yl)pyridin-2-amine] | > 200 | 0.012 | > 30 | > 30 | > 30 | > 30 | > 200 | > 30 | > 30 | > 30 | > 30 | 74 | 92 | 70 | 93 | – | – | – | 19 | –
Cn1c(N)nc2cc(-c3cn(Cc4ccc(-c5nnc(C(F)F)o5)cn4)nn3)ccc21 [Compd. 17, 5-(1-((5-(5-(difluoromethyl)-1,3,4-oxadiazol-2-yl)pyridin-2-yl)methyl)-1H-1,2,3-triazol-4-yl)-1-methyl-1H-benzo[d]imidazol-2-amine] | > 200 | 0.008 | > 30 | > 30 | > 30 | > 30 | > 200 | > 30 | > 30 | > 30 | > 30 | 82 | 84 | 85 | 99 | – | – | – | 32 | –
Cn1c(N)nc2cc(-c3cn(Cc4ccc(-c5nnc(C(F)F)o5)cc4)nn3)ccc21 [Compd. 23, 5-(1-(4-(5-(difluoromethyl)-1,3,4-oxadiazol-2-yl)benzyl)-1H-1,2,3-triazol-4-yl)-1-methyl-1H-benzo[d]imidazol-2-amine] | 30.3 | 0.013 | > 30 | > 30 | > 30 | > 30 | 0.565 | 26.5 | > 30 | > 30 | > 30 | 88 | 88 | 92 | 96 | – | – | – | 31 | –

Second part, led by results:

IC50 (recombinant human HDAC1) [µM] | IC50 (recombinant human HDAC6) [µM] | IC50 (HDAC5) [µM] | IC50 (HDAC11) [µM] | IC50 (HDAC7) [µM] | IC50 (HDAC10) [µM] | IC50 (HDAC8) [µM] | IC50 (HDAC3) [µM] | IC50 (HDAC9) [µM] | IC50 (HDAC4) [µM] | IC50 (HDAC2) [µM] | residual percentage in HUMAN PLASMA [6] [%] | residual percentage in HUMAN S9 FRACTION [7] [%] | residual percentage in RAT PLASMA (Stability in rat plasma) [%] | residual percentage in RAT S9 FRACTION [8] [%] | Structure (SMILES) | residual percentage in RAT PLASMA [1] [%] | residual percentage in HUMAN PLASMA [2] [%] | residual percentage in RAT S9 FRACTION [3] [%] | fold induction at 1 µM [4] | residual percentage in HUMAN S9 FRACTION [5] [%]
> 200 | 0.02 | > 30 | > 30 | > 30 | > 30 | > 200 | > 30 | > 30 | > 30 | > 30 | 82 | 96 | 86 | 98 | Nc1ccc(-c2cn(Cc3ccc(-c4nnc(C(F)F)o4)cn3)cn2)cn1 [compound 12, 5-(1-((5-(5-(difluoromethyl)-1,3,4-oxadiazol-2-yl)pyridin-2-yl)methyl)-1H-imidazol-4-yl)pyridin-2-amine] | – | – | – | 11 | –
> 200 | 0.016 | > 30 | > 30 | > 30 | > 30 | 29.5 | > 30 | > 30 | > 30 | > 30 | 89 | 95 | 97 | 95 | FC(F)c1nnc(-c2ccc(Cn3cc(-c4ccc(NC5=NCCN5)cc4)nn3)cc2)o1 [compound 10, N-(4-(1-(4-(5-(difluoromethyl)-1,3,4-oxadiazol-2-yl)benzyl)-1H-1,2,3-triazol-4-yl)phenyl)-4,5-dihydro-1H-imidazol-2-amine] | – | – | – | 11 | –
> 200 | 0.017 | > 30 | > 30 | > 30 | > 30 | > 200 | > 30 | > 30 | > 30 | > 30 | 84 | 99 | 75 | 90 | Nc1ccc(-c2cn(Cc3ccc(-c4nnc(C(F)F)o4)c(F)c3F)nn2)cn1 [compound 21, 5-(1-(4-(5-(difluoromethyl)-1,3,4-oxadiazol-2-yl)-2,3-difluorobenzyl)-1H-1,2,3-triazol-4-yl)pyridin-2-amine] | – | – | – | 16 | –
